Target: T1, recombinant activated p38alpha (Homo sapiens, UniProt Q16539)
T1 construct: purchased ProQinase
Assay: in vitro kinase assay p38 (ADP-Glo)
Type: biochemical
Settings: 1 μM compound; 100 μM ATP
Protocol: (§1) Purified recombinant activated p38alpha (10 nM)(ProQinase) was preincubated 10 minutes at 30° C. with the compound of interest at concentrations between 1 and 100 μM in duplicate in a final volume of 30 μl of kinase buffer (Hepes 60 mM pH 7.5, MgCl2 3 mM, MnCl2 3 mM, sodium orthovanadate 3 μM, DTT 1.2 mM). After preincubation, peptide substrate (SignalChem #P03-58) and ATP were added to a final concentration of 10 μM and 100 μM respectively, and then incubated 40 minutes at 30° C. for the kinase reaction. Phosphorylation was analysed with ADP-Glo™ (Promega #V9101) and emitted luminescence was measured with BMG Fluostar microplate reader.

T1 sequence (Q16539 whole entry): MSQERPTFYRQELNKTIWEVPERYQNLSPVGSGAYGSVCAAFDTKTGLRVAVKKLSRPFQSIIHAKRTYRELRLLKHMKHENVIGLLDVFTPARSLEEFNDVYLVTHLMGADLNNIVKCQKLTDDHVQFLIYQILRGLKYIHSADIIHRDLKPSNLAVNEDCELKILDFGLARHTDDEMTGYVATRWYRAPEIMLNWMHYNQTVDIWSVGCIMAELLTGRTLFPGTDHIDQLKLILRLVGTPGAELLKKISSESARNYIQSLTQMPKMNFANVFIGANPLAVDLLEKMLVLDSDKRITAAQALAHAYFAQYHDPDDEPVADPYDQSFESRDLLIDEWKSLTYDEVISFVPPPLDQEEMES

| inhibition at 1 µM | Structure (SMILES) |
| --- | --- |
| 41% | CCOc1ccc(Nc2nc3nonc3nc2N2CCC(Oc3ccc(Cl)cc3)CC2)cc1 [Comp 2] |
| 23% | CCCOc1cccc(Nc2nc3nonc3nc2N2CCC(Oc3ccc(Cl)cc3)CC2)c1 [Comp 3] |
| 25% | CCOc1cccc(Nc2nc3nonc3nc2N2CCC(Oc3ccc(Cl)cc3)CC2)c1 [Comp 4] |
| 41% | CCCOc1ccc(Nc2nc3nonc3nc2N2CCC(Sc3ccc(C)cc3)CC2)cc1 [Comp 5] |
| 32% | CCOc1ccc(Nc2nc3nonc3nc2N2CCC(Sc3ccc(C)cc3)CC2)cc1 [Comp 6] |
| 19% | CCCOc1cccc(Nc2nc3nonc3nc2N2CCC(Sc3ccc(C)cc3)CC2)c1 [Comp 7] |
| 16% | CCOc1cccc(Nc2nc3nonc3nc2N2CCC(Sc3ccc(C)cc3)CC2)c1 [Comp 8] |
| 23% | CCCOc1ccc(Nc2nc3nonc3nc2N2CCN(Cc3ccc(Cl)cc3)CC2)cc1 [Comp 9] |
| 25% | CCOc1ccc(Nc2nc3nonc3nc2N2CCN(Cc3ccc(Cl)cc3)CC2)cc1 [Comp 10] |
| 21% | Clc1ccc(OC2CCN(c3nc4nonc4nc3Nc3ccc4c(c3)CCO4)CC2)cc1 [Comp 11] |
| 15% | Clc1ccc(OC2CCN(c3nc4nonc4nc3Nc3ccc4occc4c3)CC2)cc1 [Comp 12] |

Same assay, conditions: 10 μM compound; 100 μM ATP

| inhibition at 10 µM | Structure (SMILES) |
| --- | --- |
| 87% | CCOc1ccc(Nc2nc3nonc3nc2N2CCC(Oc3ccc(Cl)cc3)CC2)cc1 [Comp 2] |
| 100% | CCCOc1cccc(Nc2nc3nonc3nc2N2CCC(Oc3ccc(Cl)cc3)CC2)c1 [Comp 3] |
| 68% | CCOc1cccc(Nc2nc3nonc3nc2N2CCC(Oc3ccc(Cl)cc3)CC2)c1 [Comp 4] |
| 100% | CCCOc1ccc(Nc2nc3nonc3nc2N2CCC(Sc3ccc(C)cc3)CC2)cc1 [Comp 5] |
| 95% | CCOc1ccc(Nc2nc3nonc3nc2N2CCC(Sc3ccc(C)cc3)CC2)cc1 [Comp 6] |
| 87% | CCCOc1cccc(Nc2nc3nonc3nc2N2CCC(Sc3ccc(C)cc3)CC2)c1 [Comp 7] |
| 64% | CCOc1cccc(Nc2nc3nonc3nc2N2CCC(Sc3ccc(C)cc3)CC2)c1 [Comp 8] |
| 68% | CCCOc1ccc(Nc2nc3nonc3nc2N2CCN(Cc3ccc(Cl)cc3)CC2)cc1 [Comp 9] |
| 52% | CCOc1ccc(Nc2nc3nonc3nc2N2CCN(Cc3ccc(Cl)cc3)CC2)cc1 [Comp 10] |
| 105% | Clc1ccc(OC2CCN(c3nc4nonc4nc3Nc3ccc4c(c3)CCO4)CC2)cc1 [Comp 11] |
| 95% | Clc1ccc(OC2CCN(c3nc4nonc4nc3Nc3ccc4occc4c3)CC2)cc1 [Comp 12] |

Tested on: recombinant activated JNK
Assay: in vitro kinase assay JNK (ADP-Glo)
Type: biochemical
Settings: 1 μM compound; 100 μM ATP
Protocol: as §1, with “JNK” for “p38alpha”, “nM) (ProQinase)” for “nM)(ProQinase)”, “analyzed” for “analysed”

| % of inhibition at 1 μM, JNK | Structure (SMILES) |
| --- | --- |
| 36% | CCOc1ccc(Nc2nc3nonc3nc2N2CCC(Oc3ccc(Cl)cc3)CC2)cc1 [Comp 2] |
| 31% | CCCOc1cccc(Nc2nc3nonc3nc2N2CCC(Oc3ccc(Cl)cc3)CC2)c1 [Comp 3] |
| 31% | CCOc1cccc(Nc2nc3nonc3nc2N2CCC(Oc3ccc(Cl)cc3)CC2)c1 [Comp 4] |
| 37% | CCCOc1ccc(Nc2nc3nonc3nc2N2CCC(Sc3ccc(C)cc3)CC2)cc1 [Comp 5] |
| 35% | CCOc1ccc(Nc2nc3nonc3nc2N2CCC(Sc3ccc(C)cc3)CC2)cc1 [Comp 6] |
| 34% | CCCOc1cccc(Nc2nc3nonc3nc2N2CCC(Sc3ccc(C)cc3)CC2)c1 [Comp 7] |
| 32% | CCOc1cccc(Nc2nc3nonc3nc2N2CCC(Sc3ccc(C)cc3)CC2)c1 [Comp 8] |
| 26% | CCCOc1ccc(Nc2nc3nonc3nc2N2CCN(Cc3ccc(Cl)cc3)CC2)cc1 [Comp 9] |
| 30% | CCOc1ccc(Nc2nc3nonc3nc2N2CCN(Cc3ccc(Cl)cc3)CC2)cc1 [Comp 10] |
| 24% | Clc1ccc(OC2CCN(c3nc4nonc4nc3Nc3ccc4c(c3)CCO4)CC2)cc1 [Comp 11] |
| 24% | Clc1ccc(OC2CCN(c3nc4nonc4nc3Nc3ccc4occc4c3)CC2)cc1 [Comp 12] |

Same assay, conditions: 10 μM compound; 100 μM ATP

| % of inhibition at 10 μM, JNK | Structure (SMILES) |
| --- | --- |
| 91% | CCOc1ccc(Nc2nc3nonc3nc2N2CCC(Oc3ccc(Cl)cc3)CC2)cc1 [Comp 2] |
| 96% | CCCOc1cccc(Nc2nc3nonc3nc2N2CCC(Oc3ccc(Cl)cc3)CC2)c1 [Comp 3] |
| 74% | CCOc1cccc(Nc2nc3nonc3nc2N2CCC(Oc3ccc(Cl)cc3)CC2)c1 [Comp 4] |
| 97% | CCCOc1ccc(Nc2nc3nonc3nc2N2CCC(Sc3ccc(C)cc3)CC2)cc1 [Comp 5] |
| 91% | CCOc1ccc(Nc2nc3nonc3nc2N2CCC(Sc3ccc(C)cc3)CC2)cc1 [Comp 6] |
| 101% | CCCOc1cccc(Nc2nc3nonc3nc2N2CCC(Sc3ccc(C)cc3)CC2)c1 [Comp 7] |
| 55% | CCOc1cccc(Nc2nc3nonc3nc2N2CCC(Sc3ccc(C)cc3)CC2)c1 [Comp 8] |
| 51% | CCCOc1ccc(Nc2nc3nonc3nc2N2CCN(Cc3ccc(Cl)cc3)CC2)cc1 [Comp 9] |
| 50% | CCOc1ccc(Nc2nc3nonc3nc2N2CCN(Cc3ccc(Cl)cc3)CC2)cc1 [Comp 10] |
| 74% | Clc1ccc(OC2CCN(c3nc4nonc4nc3Nc3ccc4c(c3)CCO4)CC2)cc1 [Comp 11] |
| 90% | Clc1ccc(OC2CCN(c3nc4nonc4nc3Nc3ccc4occc4c3)CC2)cc1 [Comp 12] |

Tested on: TNF-α secretion by a human monocytic cell line, THP-1
Assay: Inhibition of TNF-α secretion by LPS-stimulated THP-1 cells (ELISA)
Type: cell-based
Settings: 1 μM compound, LPS-stimulated THP-1, TNF-α, read-out: % of inhibition at 1 μM, THP1
Protocol: Thp1-Inhibition of TNF-α Secretion by a Human Monocytic Cell Line, THP-1
THP-1 cells, growing in log phase, were collected by centrifugation and resuspended in RPMI 1640 (Sigma Aldrich), to a final cell concentration of 2×10^6 cells/ml. Cells were plated into 24-well plates (BD Biosciences). Dilutions of compounds in dimethyl sulfoxide (DMSO) were added to the culture to a final concentration M. The final DMSO concentration was 0.5%. The cells […] suspensions were preincubated with compounds for 1 h at 37° C. in a 5% CO2 humidified atmosphere before the addition of LPS (Sigma Aldrich, L2654) to a g/ml. After that, cells were incubated for 3 h followed final concentration of […] by centrifugation to pellet cells. Cell supernatants were stored at 4° C. until human analysis for TNF-α content. TNF-α levels were determined by ELISA (TNF Biotrak, GE Healthcare) following the manufacturer's directions. The percentage inhibition was calculated for each compound concentration tested, and the IC50 was calculated for each compound.

| Structure (SMILES) | inhibition at 1 µM |
| --- | --- |
| CCOc1ccc(Nc2nc3nonc3nc2N2CCC(Oc3ccc(Cl)cc3)CC2)cc1 [Comp 2] | 42% |
| CCCOc1cccc(Nc2nc3nonc3nc2N2CCC(Oc3ccc(Cl)cc3)CC2)c1 [Comp 3] | 37% |
| CCOc1cccc(Nc2nc3nonc3nc2N2CCC(Oc3ccc(Cl)cc3)CC2)c1 [Comp 4] | 19% |
| CCCOc1ccc(Nc2nc3nonc3nc2N2CCC(Sc3ccc(C)cc3)CC2)cc1 [Comp 5] | 44% |
| CCOc1ccc(Nc2nc3nonc3nc2N2CCC(Sc3ccc(C)cc3)CC2)cc1 [Comp 6] | 28% |
| CCCOc1cccc(Nc2nc3nonc3nc2N2CCC(Sc3ccc(C)cc3)CC2)c1 [Comp 7] | 21% |
| CCOc1cccc(Nc2nc3nonc3nc2N2CCC(Sc3ccc(C)cc3)CC2)c1 [Comp 8] | 17% |
| CCCOc1ccc(Nc2nc3nonc3nc2N2CCN(Cc3ccc(Cl)cc3)CC2)cc1 [Comp 9] | 27% |
| CCOc1ccc(Nc2nc3nonc3nc2N2CCN(Cc3ccc(Cl)cc3)CC2)cc1 [Comp 10] | 19% |
| Clc1ccc(OC2CCN(c3nc4nonc4nc3Nc3ccc4c(c3)CCO4)CC2)cc1 [Comp 11] | 30% |
| Clc1ccc(OC2CCN(c3nc4nonc4nc3Nc3ccc4occc4c3)CC2)cc1 [Comp 12] | 45% |

Same assay, conditions: 10 μM compound, LPS-stimulated THP-1, TNF-α, read-out: % of inhibition at 10 μM, THP1

| Structure (SMILES) | inhibition at 10 µM |
| --- | --- |
| CCOc1ccc(Nc2nc3nonc3nc2N2CCC(Oc3ccc(Cl)cc3)CC2)cc1 [Comp 2] | 69% |
| CCCOc1cccc(Nc2nc3nonc3nc2N2CCC(Oc3ccc(Cl)cc3)CC2)c1 [Comp 3] | 58% |
| CCOc1cccc(Nc2nc3nonc3nc2N2CCC(Oc3ccc(Cl)cc3)CC2)c1 [Comp 4] | 41% |
| CCCOc1ccc(Nc2nc3nonc3nc2N2CCC(Sc3ccc(C)cc3)CC2)cc1 [Comp 5] | 65% |
| CCOc1ccc(Nc2nc3nonc3nc2N2CCC(Sc3ccc(C)cc3)CC2)cc1 [Comp 6] | 39% |
| CCCOc1cccc(Nc2nc3nonc3nc2N2CCC(Sc3ccc(C)cc3)CC2)c1 [Comp 7] | 33% |
| CCOc1cccc(Nc2nc3nonc3nc2N2CCC(Sc3ccc(C)cc3)CC2)c1 [Comp 8] | 37% |
| CCCOc1ccc(Nc2nc3nonc3nc2N2CCN(Cc3ccc(Cl)cc3)CC2)cc1 [Comp 9] | 39% |
| CCOc1ccc(Nc2nc3nonc3nc2N2CCN(Cc3ccc(Cl)cc3)CC2)cc1 [Comp 10] | 31% |
| Clc1ccc(OC2CCN(c3nc4nonc4nc3Nc3ccc4c(c3)CCO4)CC2)cc1 [Comp 11] | 50% |
| Clc1ccc(OC2CCN(c3nc4nonc4nc3Nc3ccc4occc4c3)CC2)cc1 [Comp 12] | 51% |
